Experimental data from patent US12478001B2, “Plant activator containing amino acid or salt thereof, and oligosaccharide, and use thereof” (priority 2019, dated 2025).

test system: komatsuna; test: Evaluation of komatsuna elicitor activity (glucanase activity measurement); type: in vivo; conditions: komatsuna grown 6 days on MS agar medium containing plant vitalizer; glucanase activity (Abs590) of leaf extract; control = Comparative Example 3 without vitalizer
Procedure: (i) The plant is sampled and pretreated; (ii) a calibration curve is drawn using BSA as the protein standard (using absorbance at a wavelength (600 nm) in a dye binding method); (iii) the protein concentration of the specimen prepared in (i) is measured; (iv) the glucanase activity of the specimen prepared in (i) is measured.
Each oligosaccharide prepared in [1. Preparation of oligosaccharide] and each amino acid prepared in [2. […] Each stock solution was diluted 1000-fold with water and used for the following cultivation test.
Murashige and Skoog (MS) agar medium was used for raising of the komatsuna.
High-pressure steam sterilized MS medium was transferred into a plant box on a clean bench and thoroughly cooled, and then komatsuna (“Wakami”, Sakata Seed Corp.) were seeded in a count of 10 each. They were then grown for 6 days with long-day conditions of 24 hours in a lighted room at 22° C.
After adding 300 μl of the prepared protein extraction buffer into a 1.5 ml tube equipped with a Biomasher (Nippi, Inc.), leaves (plant body) sampled and cut with scissors to approximately 4×4 mm were added. The procedure was carried out 5 times for each sample. A stirring rod was then rotated by hand to break up the plant body until the solid portion was generally no longer visible. Centrifugal separation was carried out under conditions of 15,000×g, 10 minutes, 4° C., and the aqueous layer was collected into a fresh 1.5 ml tube to prepare a liquid extract.
A 2 mg/ml portion of bovine serum albumin (BSA) of known purity was serially diluted (1/2, 1/4, 1/8, 1/16, 1/32 and 1/64 dilution) to prepare standards. The prepared standards were used to determine the average absorbance at 600 nm (Abs600), and a calibration curve was drawn (n=3). After injecting 300 μl of Coomassie Brilliant Blue (CBB) solution into a 96-well plate, 6 μl of the prepared liquid extract was added. The Abs600 was then measured. The blank used was MilliQ. The absorbance of the liquid extract was fitted onto the calibration curve drawn with the 2 mg/ml of serially diluted BSA, to determine the protein concentration.
Dilution was carried out to a constant liquid extract concentration using the determined values, and the diluted extract was used for the following glucanase activity measurement.
In a 1.5 ml tube there were mixed 100 μl of a B-HS substrate solution prepared by suspending one tablet of B-HS reagent (Megazyme Co.) in 10 ml of MilliQ, 50 μl of 0.2 M phosphate buffer solution (pH 6.0) and 50 μl of the previously prepared diluted solution or ultrapure water (blank), to prepare samples for each of the Comparative Examples and Examples. Enzyme reaction was conducted for 1 hour and 30 minutes in a water bath at 30° C., shaking the sample well every 15 minutes. A 100 μl portion of 0.2 N NaOH as reaction stop solution (total: 300 μl) was added to stop the reaction.

Compared with NCCCC[C@H](N)C(=O)O [Comparative Example 6, Lysine], N=C(N)NCCC[C@H](N)C(=O)O [compound 10, Arginine] is lower in “Elicitor activity (compared to control as 100)” value: 104 for the first, 79 for the second.

Compared with NCC(=O)O [compound 5, Glycine], C[C@H](N)C(=O)O [compound 9, Alanine] is lower in “Elicitor activity (compared to control as 100)” value: 141 for the first, 72 for the second.

Compared with N[C@@H](CCC(=O)[O-])C(=O)[O-].[Na+].[Na+] [compound 7, Sodium glutamate], N[C@@H](Cc1c[nH]cn1)C(=O)O [compound 8, Histidine] is higher in “Elicitor activity (compared to control as 100)” value: 82 for the first, 89 for the second.

test system: komatsuna; test: Measurement of komatsuna fresh weight after foliar application; type: in vivo; conditions: komatsuna raised 34 days in soil, vitalizer applied to leaves at one-week intervals; control = Comparative Example 11 without vitalizer
Procedure: Each oligosaccharide prepared in [1. […] Each stock solution was diluted 1000-fold with water and used for the following cultivation test. A sample was prepared with […] Corp.) as the plant crop, organic vegetable soil (Hirota Shoten) as the soil and Shin-Taki Organic Liquid Fertilizer #3 (Taki Chemical Co., Ltd.) as the fertilizer. After sprouting the plants on filter paper, they were planted into a 25-hole connected pot (280×280 mm overall, with holes of 50×50×50 mm) containing culturing soil and fertilizer.

First: N[C@@H](Cc1c[nH]cn1)C(=O)O [compound 12, Histidine]
Second: NCC(=O)O [compound 13, Glycine]
The “Fresh weight (compared to control as 100)” value of the first is lower: 92% for the first, 102% for the second.

With N[C@@H](CCC(=O)[O-])C(=O)[O-].[Na+].[Na+] [compound 14, Sodium glutamate] the “Fresh weight (compared to control as 100)” value was 89%.

test system: frill lettuce; test: Frill lettuce hydroponic cultivation test, root dry weight; type: in vivo; conditions: hydroponics, 60 days cultivation, percentage with non-added group root dry weight as 100%, vitalizer 50-100 ppm by mass
Procedure: Each oligosaccharide prepared in [1. Preparation of oligosaccharide] and each amino acid prepared in [2. Preparation of amino acids] were dissolved in water while stirring with a stirrer in a compositional ratio to 1000 times the plant vitalizer concentration (ppm by mass) in Comparative Examples 1 and 2 and Examples 1 and 6 to 7 listed in the tables, after which the bacteria were removed with a 0.45 μm filter, to obtain plant vitalizer stock solutions.
In the test groups, 150 g of each of the plant vitalizer stock solutions under different conditions was added to and dispersed in 150 L of culture solution prepared for hydroponics (1000-fold dilution), and cultivation was started for each of 120 varieties at a temperature of 20 to 22° C. Cultivation was carried out for a total of 60 days, with a total of 5 times every week after beginning further addition of 150 g of plant vitalizer stock solution, and the root dry weights of the frill lettuce were measured.
The root dry weights were determined by cutting the root parts, drying the cut roots with a constant temperature dryer for 12 hours at 50° C., and then measuring the weights.
The root dry weights in Table 1 are percentages (%) with respect to 100% as the root dry weight in the non-added group without plant vitalizer addition.

With NCC(=O)O [Comparative Example 2, Glycine] the “Increase in root dry weight with respect to non-added group (measured n = 5)” value was 112%.
